Like-named read-outs stand apart in the source and are kept apart here. Starred links: 1 amine or outer side, 2 acyl side, 3 side chain; linkers in the order of their positions; H or OH if unused. Non-standard residues stand in square brackets, D forms with d. Residues, ends and D or L forms follow the SMILES beside them. Groups on a side chain read outwards from the residue. *: point of attachment. C20 diacid = O=C(O)CCCCCCCCCCCCCCCCCCC(=O)*; C18 diacid = O=C(O)CCCCCCCCCCCCCCCCC(=O)*; γGlu = O=C(O)[C@H](CCC(=O)[*:2])N[*:1]; AEEA = NCCOCCOCC(=O)O; Aib = CC(C)(N)C(=O)O
Columns and labels:
[1] = biological target: T1, human CRF2α receptor (Homo sapiens, UniProt Q13324); assay: cAMP agonism at human CRF2 α receptor in TeloHEAC cells (Example 7); format: cell-based; conditions: cAMP HTRF, TeloHEAC cells stably expressing human CRF2 α
T1 construct: expressed in transfected cells; host or cells: TeloHEAC
T1 sequence (Q13324 1-411): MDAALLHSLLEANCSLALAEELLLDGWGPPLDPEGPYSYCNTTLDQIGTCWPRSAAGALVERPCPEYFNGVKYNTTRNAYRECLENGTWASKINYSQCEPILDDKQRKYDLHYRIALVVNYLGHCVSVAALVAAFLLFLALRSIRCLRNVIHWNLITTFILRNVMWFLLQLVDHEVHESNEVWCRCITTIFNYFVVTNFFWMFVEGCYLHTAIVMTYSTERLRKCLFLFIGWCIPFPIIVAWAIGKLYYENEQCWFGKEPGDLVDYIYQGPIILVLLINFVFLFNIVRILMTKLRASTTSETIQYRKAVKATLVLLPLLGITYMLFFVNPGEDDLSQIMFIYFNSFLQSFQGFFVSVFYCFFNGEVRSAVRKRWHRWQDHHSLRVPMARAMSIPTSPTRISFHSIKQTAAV
Summary of the method: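 Thawed frozen stably transfected cells in HBSS/20 mM HEPES (0% or 0.1% HSA) plus 2 mM IBMX were exposed to compound at 2000 cells/well for 30 min at room temperature. Intracellular cAMP was read by HTRF (665/620 nm ratio) after 1 h lysis; EC50 was derived with 1000 nM urocortin 2 set as 100%.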

[2] = test system: rat CRF2R α receptor; assay: cAMP agonism at rat CRF2R α receptor in A7R5 rat aortic smooth muscle cells (Example 8); format: cell-based; conditions: cAMP HTRF, A7R5 rat aortic smooth muscle cell line, 0% HSA
Protocol: Cells were grown in a T175 culture flask placed at 37° C. to near confluence in medium (DMEM/10% FBS) and collected in 2 ml vials in cell culture medium containing 10% DMSO in a concentration of 10-50 million cells/ml. Each vial contained 1.8 ml cells. The vials were slowly frozen to −80° C. in isopropanol and then transferred in liquid nitrogen for storage. Prior to use, frozen cells were thawed quickly at 37° C. and washed (5 min at 900 rpm) with 20 ml cell buffer (1×HBSS; 20 mM HEPES; 0% or 0.1% HSA). Cells were resuspended in assay buffer (cell buffer plus 2 mM IBMX) and adjusted to a cell density of 1 million cells/ml. For measurement, 5 μl cells (final […]) and 5 μL of test compound were added to a 384-well plate, followed by incubation for 30 minutes at room temperature.
The CAMP content of cells was determined using a kit from Cisbio Corp. (cat. no. 62AM4PEC) based on HTRF (Homogenous Time Resolved Fluorescence). After addition of HTRF reagents diluted in lysis buffer (kit components), the plates were incubated for 1 h, followed by measurement of the fluorescence ratio at 665/620 nm. The percent activity value (E %) was calculated by setting 1000 nM of urocortin 2 (UCN2) as 100%. The in vitro potency of the compounds was quantified by determining the concentrations that caused 50% activation of maximal response (EC50).
Using the procedure described in Example 7, the activity of the compounds at the rat CRF2R α receptor was assessed. The A7R5 rat aortic smooth muscle cell line was used in this study.

[3] = 0% HSA, read-out: EC50 [nM], 0% HSA
[4] = 0.1% HSA, read-out: EC50 [nM], 0.1% HSA

| EC50 [1, 3] | EC50 [1, 4] | EC50 [2] | SMILES |
| --- | --- | --- | --- |
| 0.42 nM | 5.63 nM | 5.29 nM | CC[C@H](C)[C@H](NC(C)=O)C(=O)N[C@H](C(=O)N[C@@H](CC(C)C)C(=O)N[C@@H](CO)C(=O)N[C@@H](CC(C)C)C(=O)N[C@@H](CC(=O)O)C(=O)N[C@@H](C(=O)N1CCC[C@H]1C(=O)N[C@H](C(=O)N[C@@H](CCCCN)C(=O)N[C@@H](CC(C)C)C(=O)N[C@@H](CCCCNC(=O)COCCOCCNC(=O)COCCOCCNC(=O)CC[C@H](NC(=O)CCCCCCCCCCCCCCCCC(=O)O)C(=O)O)C(=O)N[C@@H](CCC(N)=O)C(=O)N[C@H](C(=O)N[C@@H](CC(C)C)C(=O)N[C@@H](CC(C)C)C(=O)N[C@@H](CCC(=O)O)C(=O)N[C@@H](CCC(N)=O)C(=O)N[C@@H](CCC(=O)O)C(=O)N[C@@H](CCCNC(=N)N)C(=O)N[C@@H](CCC(N)=O)C(=O)N[C@@H](CCCCN)C(=O)NC(C)(C)C(=O)N[C@@H](CCC(N)=O)C(=O)N[C@@H](CCCNC(=N)N)C(=O)N[C@@H](CCC(=O)O)C(=O)N[C@@H](CCC(N)=O)C(=O)N[C@@H](C)C(=O)N[C@@H](CCC(=O)O)C(=O)N[C@@H](CCCCN)C(=O)N[C@@H](CC(N)=O)C(=O)N[C@@H](CCCCN)C(=O)N[C@@H](CCC(N)=O)C(=O)N[C@H](C(=O)N[C@@H](CC(C)C)C(=O)N[C@@H](CCC(=O)O)C(=O)N[C@@H](CCC(N)=O)C(=O)N[C@H](C(N)=O)C(C)C)[C@@H](C)CC)[C@@H](C)CC)[C@@H](C)CC)C(C)C)C(C)C [compound 158] (Ac-IVLSLD[dV]PIKLK([AEEA-AEEA-γGlu-C18 diacid])QILLEQERQK[Aib]QREQAEKNKQILEQV-NH2) |
| 1.27 nM | 27.4 nM | 15.6 nM | CC[C@H](C)[C@H](NC(C)=O)C(=O)N[C@H](C(=O)N[C@@H](CC(C)C)C(=O)N[C@@H](CO)C(=O)N[C@@H](CC(C)C)C(=O)N[C@@H](CC(=O)O)C(=O)N[C@@H](C(=O)N1CCC[C@H]1C(=O)N[C@H](C(=O)N[C@@H](CCCCN)C(=O)N[C@@H](CC(C)C)C(=O)N[C@@H](CCCCNC(=O)COCCOCCNC(=O)COCCOCCNC(=O)CC[C@H](NC(=O)CCCCCCCCCCCCCCCCC(=O)O)C(=O)O)C(=O)N[C@@H](CCC(N)=O)C(=O)N[C@H](C(=O)N[C@@H](CC(C)C)C(=O)N[C@@H](CC(C)C)C(=O)N[C@@H](CCC(=O)O)C(=O)N[C@@H](CCC(N)=O)C(=O)N[C@@H](CCC(=O)O)C(=O)N[C@@H](CCCNC(=N)N)C(=O)N[C@@H](CCC(N)=O)C(=O)N[C@@H](CCC(=O)O)C(=O)NC(C)(C)C(=O)N[C@@H](CCC(N)=O)C(=O)N[C@@H](CCCNC(=N)N)C(=O)N[C@@H](CCC(=O)O)C(=O)N[C@@H](CCC(N)=O)C(=O)N[C@@H](C)C(=O)N[C@@H](CCC(=O)O)C(=O)N[C@@H](CCCCN)C(=O)N[C@@H](CC(N)=O)C(=O)N[C@@H](CCCCN)C(=O)N[C@@H](CCC(N)=O)C(=O)N[C@H](C(=O)N[C@@H](CC(C)C)C(=O)N[C@@H](CCC(=O)O)C(=O)N[C@@H](CCC(N)=O)C(=O)N[C@H](C(N)=O)C(C)C)[C@@H](C)CC)[C@@H](C)CC)[C@@H](C)CC)C(C)C)C(C)C [compound 159] (Ac-IVLSLD[dV]PIKLK([AEEA-AEEA-γGlu-C18 diacid])QILLEQERQE[Aib]QREQAEKNKQILEQV-NH2) |
| 0.03 nM | 3.49 nM | 0.83 nM | CC[C@H](C)[C@H](N)C(=O)N[C@H](C(=O)N[C@@H](CC(C)C)C(=O)N[C@@H](CO)C(=O)N[C@@H](CC(C)C)C(=O)N[C@@H](CC(=O)O)C(=O)N[C@@H](C(=O)N1CCC[C@H]1C(=O)N[C@H](C(=O)N[C@@H](CCCCN)C(=O)N[C@@H](CC(C)C)C(=O)N[C@@H](CCCCNC(=O)COCCOCCNC(=O)COCCOCCNC(=O)CC[C@H](NC(=O)CCCCCCCCCCCCCCCCCCC(=O)O)C(=O)O)C(=O)N[C@@H](CCC(N)=O)C(=O)N[C@H](C(=O)N[C@@H](CC(C)C)C(=O)N[C@@H](CC(C)C)C(=O)N[C@@H](CCCCN)C(=O)N[C@@H](CCC(N)=O)C(=O)N[C@@H](CCC(=O)O)C(=O)N[C@@H](CCCNC(=N)N)C(=O)N[C@@H](CCC(N)=O)C(=O)N[C@@H](CCCCN)C(=O)NC(C)(C)C(=O)N[C@@H](CCC(N)=O)C(=O)N[C@@H](CCCNC(=N)N)C(=O)N[C@@H](CCC(=O)O)C(=O)N[C@@H](CCC(N)=O)C(=O)N[C@@H](C)C(=O)N[C@@H](CCC(=O)O)C(=O)N[C@@H](CCCCN)C(=O)N[C@@H](CC(N)=O)C(=O)N[C@@H](CCCCN)C(=O)N[C@@H](CCC(N)=O)C(=O)N[C@H](C(=O)N[C@@H](CC(C)C)C(=O)N[C@@H](C)C(=O)N[C@@H](CCC(N)=O)C(=O)N[C@H](C(N)=O)C(C)C)[C@@H](C)CC)[C@@H](C)CC)[C@@H](C)CC)C(C)C)C(C)C [compound 173] (H-IVLSLD[dV]PIKLK([AEEA-AEEA-γGlu-C20 diacid])QILLKQERQK[Aib]QREQAEKNKQILAQV-NH2; N-terminus assumed) |
| 0.07 nM | 0.88 nM | 0.42 nM | CC[C@H](C)[C@H](N)C(=O)N[C@H](C(=O)N[C@@H](CC(C)C)C(=O)N[C@@H](CO)C(=O)N[C@@H](CC(C)C)C(=O)N[C@@H](CC(=O)O)C(=O)N[C@@H](C(=O)N1CCC[C@H]1C(=O)N[C@H](C(=O)N[C@@H](CCCCN)C(=O)N[C@@H](CC(C)C)C(=O)N[C@@H](CCCCNC(=O)COCCOCCNC(=O)COCCOCCNC(=O)CC[C@H](NC(=O)CC[C@H](NC(=O)CCCCCCCCCCCCCCCCC(=O)O)C(=O)O)C(=O)O)C(=O)N[C@@H](CCC(N)=O)C(=O)N[C@H](C(=O)N[C@@H](CC(C)C)C(=O)N[C@@H](CC(C)C)C(=O)N[C@@H](CCCCN)C(=O)N[C@@H](CCC(N)=O)C(=O)N[C@@H](C)C(=O)N[C@@H](CCCNC(=N)N)C(=O)N[C@@H](CCC(N)=O)C(=O)N[C@@H](CCCCN)C(=O)NC(C)(C)C(=O)N[C@@H](CCC(N)=O)C(=O)N[C@@H](CCCNC(=N)N)C(=O)N[C@@H](C)C(=O)N[C@@H](CCC(N)=O)C(=O)N[C@@H](C)C(=O)N[C@@H](CCC(=O)O)C(=O)N[C@@H](CCCCN)C(=O)N[C@@H](CC(N)=O)C(=O)N[C@@H](CCCCN)C(=O)N[C@@H](CCCNC(=N)N)C(=O)N[C@H](C(=O)N[C@@H](CC(C)C)C(=O)N[C@@H](CCC(=O)O)C(=O)N[C@@H](CCCNC(=N)N)C(=O)N[C@H](C(N)=O)C(C)C)[C@@H](C)CC)[C@@H](C)CC)[C@@H](C)CC)C(C)C)C(C)C [compound 174] (H-IVLSLD[dV]PIKLK([AEEA-AEEA-γGlu-γGlu-C18 diacid])QILLKQARQK[Aib]QRAQAEKNKRILERV-NH2; N-terminus assumed) |
| 0.03 nM | 3.13 nM | 0.59 nM | CC[C@H](C)[C@H](N)C(=O)N[C@H](C(=O)N[C@@H](CC(C)C)C(=O)N[C@@H](CO)C(=O)N[C@@H](CC(C)C)C(=O)N[C@@H](CC(=O)O)C(=O)N[C@@H](C(=O)N1CCC[C@H]1C(=O)N[C@H](C(=O)N[C@@H](CCCCN)C(=O)N[C@@H](CC(C)C)C(=O)N[C@@H](CCCCNC(=O)CCCCCCCCCCCCCCCCC(=O)O)C(=O)N[C@@H](CCC(N)=O)C(=O)N[C@H](C(=O)N[C@@H](CC(C)C)C(=O)N[C@@H](CC(C)C)C(=O)N[C@@H](CCCCN)C(=O)N[C@@H](CCC(N)=O)C(=O)N[C@@H](CCC(=O)O)C(=O)N[C@@H](CCCNC(=N)N)C(=O)N[C@@H](CCC(N)=O)C(=O)N[C@@H](CCCCN)C(=O)NC(C)(C)C(=O)N[C@@H](CCC(N)=O)C(=O)N[C@@H](CCCNC(=N)N)C(=O)N[C@@H](CCC(=O)O)C(=O)N[C@@H](CCC(N)=O)C(=O)N[C@@H](C)C(=O)N[C@@H](CCC(=O)O)C(=O)N[C@@H](CCCCN)C(=O)N[C@@H](CC(N)=O)C(=O)N[C@@H](CCCCN)C(=O)N[C@@H](CCC(N)=O)C(=O)N[C@H](C(=O)N[C@@H](CC(C)C)C(=O)N[C@@H](C)C(=O)N[C@@H](CCC(N)=O)C(=O)N[C@H](C(N)=O)C(C)C)[C@@H](C)CC)[C@@H](C)CC)[C@@H](C)CC)C(C)C)C(C)C [compound 182] (H-IVLSLD[dV]PIKLK(C18 diacid)QILLKQERQK[Aib]QREQAEKNKQILAQV-NH2; N-terminus assumed) |
